Data published in publication PMC7079008, “Compactness of Protein Folds Alters Disulfide‐Bond Reducibility by Three Orders of Magnitude: A Comprehensive Kinetic Case Study on the Reduction of Differently Sized Tryptophan Cage Model Proteins” (Chembiochem, 2019).

Assay: TCEP stability in phosphate buffer by 31P NMR
Assay type: physicochemical
Settings: 50 mM phosphate buffer, room temperature, over 14 days
Protocol: Due to the acidic nature of TCEP, to avoid any pH shift, a phosphate buffer (50 mM, pH 7) was used to sustain near‐physiological pH. The groups of Han39 and Whitesides37 described the chemical instability of TCEP above pH 7 in 300–400 mM phosphate buffer.
NMR spectroscopy: All ^1H NMR spectroscopy experiments were performed on a Bruker Avance III 700 MHz spectrometer equipped with a z‐gradient 5 mm probe head operating at 700.13 MHz for ^1H, whereas ^31P NMR spectroscopy experiments were performed on a Bruker Avance 250 spectrometer with a 5 mm SB quad probe head.

Structure (SMILES): O=C(O)CCP(CCC(=O)O)CCC(=O)O [TCEP, tris(2‐carboxyethyl)phosphine]
- TCEP oxidation or degradation: no significant spectral changes
